Tests used:
[1] = SAM uptake in mouse brain after oral administration (HPLC and tritiated SAM scintillation count); format: in vivo; details: mice, 800 μg tritiated SAM; total and cleared lysates higher
Procedure: (§1) For the mice, 400 μg/day of SAM was administered orally by feeding probe needle, and the animals were sacrificed after 2 months; the animals were fed on a complete diet or a vitamin B-deprived diet, according to trial design. SAM levels were analysed by HPLC with a Varian HPLC system. The cells and homogenised brains were lysed in distilled water, and the macromolecules were precipitated with 1.5 M PCA. Standard SAM curves were calculated before and after the experimental samples. For the analysis of tritiated SAM, cells were treated as described above, while mice were treated for 4 days to minimise exposure to the radioactive drug. The cells and homogenised brains were lysed in distilled water. A portion of lysed brains was sonicated and centrifuged to separate membranes and cell organelles; another portion was treated with perchloric acid (PCA) after sonication to separate the macromolecules. The uptake of radioactive SAM was measured by scintillation with a beta counter.
A portion of the total brain lysates was also sonicated and centrifuged to obtain a cleared lysate (cytoplasm), and a further portion of this cleared lysate was precipitated with perchloric acid (PCA) to eliminate the proteins (soluble lysate).

SK-N-BE cell cultures = test: SAM uptake in cell cultures (HPLC and tritiated SAM scintillation count); format: in vitro ADME, human; details: 100 μM SAM in F14 medium, 96 hours, HPLC; control 1
Procedure: For the cell cultures, 100 μM of SAM was added to the F14 cell culture medium (complete or deprived of vitamin B, according to trial design) and the cultures were stopped after 96 hours.
as §1, with “A portion of lysed brains was sonicated and centrifuged to separate membranes and cell organelles; another portion was treated with perchloric acid (PCA) after sonication to separate the macromolecules.” left out
To establish whether the increase was due to uptake of exogenous SAM as opposed to an increase in the endogenous reserves in the presence of elevated extracellular concentrations of the molecule, a test was performed with radioactive SAM. 100 μM of tritiated SAM (SAM[3H]) was added to SK-N-BE cell cultures, and the uptake was evaluated by cell lysis and radioactivity count.

PS1 [2] = test: PS1 gene expression in brains of mice on a vitamin B-deprived diet (real-time PCR); format: in vivo; details: TgCRND8 mice and wild-type controls, SAM 400 μg/day, brain cDNA normalised to β-actin, FIG. 1, even lower than control diet
Procedure: (§2) In particular, the effect of SAM was tested at pharmacological concentrations (400 μg/day) on TgCRND8 mice and the corresponding wild-type controls.
(§3) RNA was extracted from cell cultures and homogenised brains, and cDNA was synthesised. 0.5 μg of total cDNA was used for each real-time reaction on an Opticon2 DNA Engine (MJ Research) using SYBR-Green reagents. The amplification efficiency for each pair of primers was previously determined by amplification of a standard linear curve. The experimental samples were compared with a standard curve of a specific gene to determine the quantity of specific cDNA present in the standard reaction. The standards were obtained from highly purified PCR products amplified by positive controls. The total cDNA levels were normalised to the β-actin control (gene housekeeping).

BACE [3] = test: BACE gene expression in brains of mice on a vitamin B-deprived diet (real-time PCR); format: in vivo; details: TgCRND8 mice and wild-type controls, SAM 400 μg/day, brain cDNA normalised to β-actin, FIG. 1, even lower than control diet
Procedure: as §2, §3

BACE [4] = test: Preliminary experiments: BACE expression in SK-N-SH neuroblastoma line in vitamin B-deprived medium; format: cell-based; details: medium deprived of folate, vitamin B12 and vitamin B6, SAM at various concentrations, published
Procedure: (§4) Preliminary experiments have been performed on a neuroblastoma line (SK-N-SH) which expresses APP, PS1, PS2, BACE, alpha-secretase, the other components of gamma-secretase, and Notchl. The cultures were treated with a culture medium deprived of folate, vitamin B12 and vitamin B6 (in order to alter the metabolism of homocysteine), to which SAM was added at various concentrations (to balance the effects of vitamin deprivation). […] In experiments conducted with HpaII/PCR on APP and PS1 promoters, we found a major difference in the methylation of one of the CpG sites of the PS1 promoter. We concluded that the PS1 gene can be partly silenced by administration of exogenous SAM. The administration of SAM can reduce PS1 expression, restoring the metabolic balance in favour of alpha-secretase. Experiments have also been conducted with transgenic mice of the strain TgCRND8, and corresponding controls; these mice are characterised by the presence of the human mutated APP gene, and can therefore develop amyloid plaques in a short time. These animals were fed on a complete diet or a diet lacking in the vitamins of the B group; once again, as in the cells, an increase in PS1 and BACE expression was observed.

PS1 [5] = test: Preliminary experiments: PS1 expression in SK-N-SH neuroblastoma line in vitamin B-deprived medium; format: cell-based; details: medium deprived of folate, vitamin B12 and vitamin B6, SAM at various concentrations, published
Procedure: as §4

PS1 [6] = test: PS1 gene expression in vitamin-deprived SK-N-BE neuroblastoma cells (real-time PCR); format: cell-based, human; details: FIG. 2, SOD and GSH to a lesser extent than SAM
Procedure: as §3
(§5) As homocysteine metabolism is involved in both methylation and oxidoreduction reactions, we tested the effect of various antioxidants on the expression of the two genes.

BACE [7] = test: BACE gene expression in vitamin-deprived SK-N-BE neuroblastoma cells (real-time PCR); format: cell-based, human; details: FIG. 2, SOD and GSH to a lesser extent than SAM
Procedure: as §3, §5

Molecule: C[S+](CC[C@H](N)C(=O)O)C[C@H]1O[C@@H](n2cnc3c(N)ncnc32)[C@H](O)[C@@H]1O (some centres unmarked) [SAM, S-adenosylmethionine]
- radioactivity level of soluble brain lysate (PCA-precipitated cleared lysate), as SAM [1]: ~0.5 ng
- intracellular levels of SAM (SK-N-BE cell cultures): 2.5 to 3 µM
- overexpression of PS1 induced by a deprived diet in vivo (PS1 [2]): reverses the overexpression
- overexpression of BACE induced by a deprived diet in vivo (BACE [3]): reverses the overexpression
- BACE expression after the administration of SAM (BACE [4]): marked reduction
- PS1 expression after the administration of SAM (PS1 [5]): marked reduction

B1: SOD: enzyme superoxide dismutase, obtained by fermentation from strains of Saccharomyces cerevisiae (protein, UniProt P00445 2-154, looked up)
Superoxide dismutase [Cu-Zn]: VQAVAVLKGDAGVSGVVKFEQASESEPTTVSYEIAGNSPNAERGFHIHEFGDATNGCVSAGPHFNPFKKTHGAPTDEVRHVGDMGNVKTDENGVAKGSFKDSLIKLIGPTSVVGRSVVIHAGQDDLGKGDTEESLKTGNAGPRPACGVIGLTN
- overexpression of PS1 induced by vitamin deprivation (PS1 [6]): inhibit overexpression
- overexpression of BACE induced by vitamin deprivation (BACE [7]): inhibit overexpression

Reference: patent US8778337B2, “Use of S-adenosylmethionine (SAM) and superoxide dismutase (SOD) for the preparation of medicaments for the treatment of alzheimer's disease” (Gnosis S.p.A., priority 2008, dated 2014)
